Source: ChEMBL document CHEMBL1201862, “PubChem BioAssay data set” (2004)
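1) Cells in 96-well plates. 2) Compound, 48 h, 5 concentrations. 3) Linear interpolation between surrounding doses. 4) Unreached endpoint = highest concentration. Abbreviation: GI50, concentration required for 50% inhibition of growth.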 Activity calls are given as the source filed them. Cut-off read from the data, not from the text of the source: active = GI50 up to about 1.1 µM and inactive = higher.

Tests used:
Assay in all cases: NCI-60 cell line screen, 48 h
[1] = test system: K562
[2] = test system: SK-OV-3
[3] = test system: SNB-19
[4] = test system: M14
[5] = test system: SNB-75
[6] = test system: CCRF-CEM
[7] = test system: RXF 631
[8] = test system: SNB-78
[9] = test system: HCT-116
[10] = test system: DLD-1
[11] = test system: ACHN
[12] = test system: HT-29
[13] = test system: OVCAR-3
[14] = test system: HCC 2998
[15] = test system: SK-MEL-2
[16] = test system: NCI-H23
[17] = test system: SF-539
[18] = test system: SK-MEL-28
[19] = test system: EKVX
[20] = test system: NCI-H522
[21] = test system: HOP-18
[22] = test system: TK-10
[23] = test system: UO-31
[24] = test system: NCI-H460
[25] = test system: SW-620
[26] = test system: UACC-62
[27] = test system: CAKI-1
[28] = test system: DMS-273
[29] = test system: MOLT-4
[30] = test system: SF-268
[31] = test system: SK-MEL-5
[32] = test system: OVCAR-8
[33] = test system: OVCAR-4
[34] = test system: A549
[35] = test system: HCT-15
[36] = test system: OVCAR-5
[37] = test system: HL-60
[38] = test system: UACC-257
[39] = test system: M19-MEL
[40] = test system: 786-0
[41] = test system: KM-20L2
[42] = test system: XF498
[43] = test system: Malme-3M
[44] = test system: LOX IMVI
[45] = test system: SF-295
[46] = test system: U-251
[47] = test system: RXF 393
[48] = test system: IGROV-1
[49] = test system: DMS-114
[50] = test system: SN12C
[51] = test system: LXFL 529
[52] = test system: COLO 205
[53] = test system: A498
[54] = test system: KM12
[55] = test system: HOP-92
[56] = test system: NCI-H226
[57] = test system: RPMI-8226
[58] = test system: SR
[59] = test system: HOP-62

O=S(O)CCCCSSCCCCSSCCCCS(=O)O
GI50 [1]: 15 µM (inactive)
GI50 [2]: > 100 µM (inactive)
GI50 [3]: > 100 µM (inactive)
GI50 [4]: 11.2 µM (inactive)
GI50 [5]: 6.31 µM (inactive)
GI50 [6]: 5.9 µM (inactive)
GI50 [7]: 33.7 µM (inactive)
GI50 [8]: 15.7 µM (inactive)
GI50 [9]: > 100 µM (inactive)
GI50 [10]: 86.1 µM (inactive)
GI50 [11]: 40.9 µM (inactive)
GI50 [12]: > 10 µM (inactive)
GI50 [13]: 33.9 µM (inactive)
GI50 [14]: > 100 µM (inactive)
GI50 [15]: 24.9 µM (inactive)
GI50 [16]: 36 µM (inactive)
GI50 [17]: 66.2 µM (inactive)
GI50 [18]: 20.7 µM (inactive)
GI50 [19]: 6.38 µM (inactive)
GI50 [20]: 13 µM (inactive)
GI50 [21]: 70.1 µM (inactive)
GI50 [22]: 26.4 µM (inactive)
GI50 [23]: 29 µM (inactive)
GI50 [24]: 53.1 µM (inactive)
GI50 [25]: 24.4 µM (inactive)
GI50 [26]: 12.1 µM (inactive)
GI50 [27]: 95.3 µM (inactive)
GI50 [28]: 42.6 µM (inactive)
GI50 [29]: 0.851 µM (active)
GI50 [30]: 27.4 µM (inactive)
GI50 [31]: 10.7 µM (inactive)
GI50 [32]: 18.9 µM (inactive)
GI50 [33]: 16 µM (inactive)
GI50 [34]: 34 µM (inactive)
GI50 [35]: 42.7 µM
GI50 [36]: > 100 µM (inactive)
GI50 [37]: 3.25 µM (inactive)
GI50 [38]: 10.1 µM (inactive)
GI50 [39]: 5.53 µM (inactive)
GI50 [40]: > 100 µM (inactive)
GI50 [41]: > 100 µM (inactive)
GI50 [42]: 6.41 µM (inactive)
GI50 [43]: 15.8 µM (inactive)
GI50 [44]: 12.8 µM (inactive)
GI50 [45]: 30.1 µM (inactive)
GI50 [46]: > 100 µM (inactive)
GI50 [47]: 27.2 µM (inactive)
GI50 [48]: > 100 µM (inactive)
GI50 [49]: 25.5 µM (inactive)
GI50 [50]: 42.7 µM (inactive)
GI50 [51]: 11.1 µM (inactive)
GI50 [52]: 22.6 µM (inactive)
GI50 [53]: 96.6 µM (inactive)
GI50 [54]: 76 µM (inactive)

CC(=O)NC(CCCCNC(=O)N(CCCl)N=O)C(=O)NCc1ccccc1 (stereo not given)
GI50 [1]: > 100 µM (inactive)
GI50 [3]: > 100 µM (inactive)
GI50 [55]: > 100 µM (inactive)
GI50 [4]: > 100 µM (inactive)
GI50 [5]: 27.2 µM (inactive)
GI50 [56]: > 100 µM (inactive)
GI50 [6]: > 100 µM (inactive)
GI50 [7]: > 100 µM (inactive)
GI50 [9]: > 100 µM (inactive)
GI50 [10]: > 100 µM (inactive)
GI50 [11]: > 100 µM (inactive)
GI50 [12]: > 100 µM (inactive)
GI50 [13]: > 100 µM (inactive)
GI50 [14]: > 100 µM (inactive)
GI50 [15]: > 100 µM (inactive)
GI50 [16]: > 100 µM (inactive)
GI50 [17]: 29 µM (inactive)
GI50 [18]: > 100 µM (inactive)
GI50 [19]: > 100 µM (inactive)
GI50 [20]: > 100 µM (inactive)
GI50 [21]: > 100 µM (inactive)
GI50 [23]: > 100 µM (inactive)
GI50 [24]: 28.6 µM (inactive)
GI50 [25]: > 100 µM (inactive)
GI50 [26]: > 100 µM (inactive)
GI50 [27]: > 100 µM (inactive)
GI50 [28]: > 100 µM (inactive)
GI50 [29]: > 100 µM (inactive)
GI50 [57]: > 100 µM (inactive)
GI50 [30]: 17.9 µM (inactive)
GI50 [32]: > 100 µM (inactive)
GI50 [33]: > 100 µM (inactive)
GI50 [34]: > 100 µM (inactive)
GI50 [58]: 91.6 µM (inactive)
GI50 [35]: > 100 µM
GI50 [37]: > 100 µM (inactive)
GI50 [59]: > 100 µM (inactive)
GI50 [38]: > 100 µM (inactive)
GI50 [39]: > 100 µM (inactive)
GI50 [40]: 35.9 µM (inactive)
GI50 [41]: > 100 µM (inactive)
GI50 [42]: > 100 µM (inactive)
GI50 [43]: > 100 µM (inactive)
GI50 [45]: 55.2 µM (inactive)
GI50 [46]: 61.7 µM (inactive)
GI50 [48]: 51.8 µM (inactive)
GI50 [49]: > 100 µM (inactive)
GI50 [50]: > 100 µM (inactive)
GI50 [51]: > 100 µM (inactive)
GI50 [52]: > 100 µM (inactive)
GI50 [54]: > 100 µM (inactive)
